Earlier results, collected in patent publication US20230120480A1, “METHODS FOR REMOVING CONTAMINANTS FROM PLANT-DERIVED PHARMACEUTICALS” (priority 2021, published 2023).

tested on: humans

**Q.** With `CCCCOCCOCCOCc1cc2c(cc1CCC)OCO2` [Piperonyl butoxide] as the compound, how does the toxicity to humans read?
**A.** non-toxic

tested on: not given

**Q.** Which “Water Soluble?” value does the source give for `CCCCCc1cc(O)c(C/C=C(\C)CCC=C(C)C)c(O)c1C(=O)O` [Cannabigerolic acid] here?
**A.** Yes

**Q.** Which “Water Soluble?” value does the source give for `CCCCCc1cc(O)c2c(c1C(=O)O)OC(C)(C)[C@@H]1CCC(C)=C[C@@H]21` [Delta-9-tetrahydrocannabinolic acid B] here?
**A.** Yes

**Q.** For `CCCCCc1cc(O)c2c(c1)OC(C)(C)C1=C2CC(C)(O)C(O)C1` (stereo not shown) [8,9-Dihydroxy-delta-6a-tetrahydrocannabinol], which “Water Soluble?” value is on record?
**A.** No

**Q.** For `CCCCCc1cc(O)c2c(c1)OC(C)(CCC=C(C)C)C=C2` (stereo not shown) [Cannabichromene], which “Water Soluble?” value is on record?
**A.** No

**Q.** With `C=C(C)[C@@H]1CCC(C)=C[C@H]1c1c(O)cc(CCCCC)c(C(=O)O)c1O` [Cannabidiolic acid] as the compound, how does the “Water Soluble?” value read?
**A.** No

**Q.** Which “Water Soluble?” value does the source give for `C=C(C)[C@@H]1CCC(C)=C[C@H]1c1c(O)cc(CCCCC)cc1OC` [Cannabidiol monomethylether] here?
**A.** No

**Q.** Which “Water Soluble?” value does the source give for `CCCc1cc(O)c(C/C=C(\C)CCC=C(C)C)c(O)c1C(=O)O` [Cannabigerovarinic acid] here?
**A.** Yes

**Q.** With `CCCCCc1cc(O)c2c(c1)OC1(C)CCC3C1C2C3(C)C` (stereo not shown) [Cannabicyclol] as the compound, how does the “Water Soluble?” value read?
**A.** No

**Q.** With `CCCCCc1cc(O)c2c(c1)OC(C)(C)C1CC=C(C)CC21` (stereo not shown) [Delta-8-tetrahydrocannabinol] as the compound, how does the “Water Soluble?” value read?
**A.** No

**Q.** With Cannabifuran as the compound, how does the “Water Soluble?” value read?
**A.** No

**Q.** Which “Water Soluble?” value does the source give for `CCCCc1cc(O)c2c(c1)OC(C)(C)C1CCC(C)=CC21` (stereo not shown) [Delta-9-tetrahydrocannabinol-C4] here?
**A.** No

**Q.** Which “Water Soluble?” value does the source give for `CCCCCc1cc(O)c2c(c1)OC(C)(C)[C@@H]1CCC(C)=C[C@@H]21` [Delta-9-tetrahydrocannabinol, reference compound] here?
**A.** No

**Q.** For `CCCCCc1cc(O)c(C/C=C(\C)CCC=C(C)C)c(OC)c1` [Cannabigerol monomethylether], which “Water Soluble?” value is on record?
**A.** No

**Q.** Which “Water Soluble?” value does the source give for `CCCCCc1cc(OC)c2c(c1)OC(C)(C)c1ccc(C)cc1-2` [Cannabinol methylether] here?
**A.** No

**Q.** For `CCCCCc1cc(O)c2c(c1)OC(C)(C)[C@@H]1CC[C@](C)(O)[C@@H](O)[C@@H]21` [Cannabiripsol], which “Water Soluble?” value is on record?
**A.** No

**Q.** Which “Water Soluble?” value does the source give for `CCCCCc1cc2c(c(O)c1C(=O)O)C=CC(C)(CCC=C(C)C)O2` (stereo not shown) [Cannabichromenic acid] here?
**A.** Yes

**Q.** For `CCc1cc(O)c2c(c1)OC(C)(C)c1ccc(C)cc1-2` [Cannabinol-C2], which “Water Soluble?” value is on record?
**A.** No

**Q.** Which “Water Soluble?” value does the source give for `CCCc1cc2c(c(O)c1C(=O)O)C=CC(C)(CCC=C(C)C)O2` (stereo not shown) [Cannabichromevarinic acid] here?
**A.** No
